Experimental data from patent US10005754B2, “Form of spirodiclofen, a process for its preparation and use the same” (priority 2015, dated 2018).

Assay: Comparison of storage stability of suspension concentrates (CIPAC MT 46.3)
Type: physicochemical
Protocol: Samples prepared in Examples 4 and 5 were stored at 54° C. for 1 month, 3 months and 6 months. The procedures are followed according to CIPAC MT 46.3. The concentration of spirodiclofen was measured at the end of each storage time by HPLC. The aggregation was measured by observation. The original concentration of spirodiclofen in each formulation was 25%.

| SMILES | storage stability / aggregation after prolong storage (listed as spirodiclofen in amorphous state) | storage stability / aggregation after prolong storage (listed as crystalline modification I of spirodiclofen) |
| --- | --- | --- |
| CCC(C)(C)C(=O)OC1=C(c2ccc(Cl)cc2Cl)C(=O)OC12CCCCC2 [Example 1, 3-(2,4-dichlorophenyl)-2-oxo-1-oxaspiro[4.5]dec-3-en-4-yl-2,2-dimethyl butyrate] | high tendency of aggregation | – |
| CCC(C)(C)C(=O)OC1=C(c2ccc(Cl)cc2Cl)C(=O)OC12CCCCC2 [Example 2, 3-(2,4-dichlorophenyl)-2-oxo-1-oxaspiro[4.5]dec-3-en-4-yl-2,2-dimethyl butyrate] | – | significant improvement in its stability without aggregation |
